Source: ChEMBL document CHEMBL1201862, “PubChem BioAssay data set” (2004)
Calls of active or inactive are those of the source.

Key:
[1] = biological target: T1, Microphthalmia-associated transcription factor (Homo sapiens, UniProt O75030); experiment: TRPM1 promoter luciferase signal decrease, dose response, MITF inhibitor project, cell-based, SK-MEL-5, cherry-picked, set 3 (AID 493073); type: functional
T1 sequence (O75030 whole entry): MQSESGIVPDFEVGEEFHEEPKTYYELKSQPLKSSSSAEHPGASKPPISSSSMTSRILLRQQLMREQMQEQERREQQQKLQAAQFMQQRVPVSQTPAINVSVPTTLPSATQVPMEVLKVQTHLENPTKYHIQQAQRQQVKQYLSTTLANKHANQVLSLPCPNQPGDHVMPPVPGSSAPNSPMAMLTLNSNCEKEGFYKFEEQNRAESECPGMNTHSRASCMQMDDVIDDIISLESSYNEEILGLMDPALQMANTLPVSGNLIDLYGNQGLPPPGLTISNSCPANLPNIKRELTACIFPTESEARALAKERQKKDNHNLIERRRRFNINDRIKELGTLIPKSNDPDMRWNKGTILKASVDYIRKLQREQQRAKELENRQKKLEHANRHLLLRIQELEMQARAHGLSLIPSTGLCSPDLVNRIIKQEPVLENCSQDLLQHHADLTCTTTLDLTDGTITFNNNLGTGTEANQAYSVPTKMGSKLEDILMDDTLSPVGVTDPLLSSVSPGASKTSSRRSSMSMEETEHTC

[2] = biological target: T2, DNA repair and recombination protein RAD54-like (Homo sapiens, UniProt Q92698); experiment: inhibitors of human RAD54 branch migration, confirmation, biochemical, fluorescence, cherry-picked samples, dose series (AID 651657); type: functional
T2 sequence (Q92698 whole entry): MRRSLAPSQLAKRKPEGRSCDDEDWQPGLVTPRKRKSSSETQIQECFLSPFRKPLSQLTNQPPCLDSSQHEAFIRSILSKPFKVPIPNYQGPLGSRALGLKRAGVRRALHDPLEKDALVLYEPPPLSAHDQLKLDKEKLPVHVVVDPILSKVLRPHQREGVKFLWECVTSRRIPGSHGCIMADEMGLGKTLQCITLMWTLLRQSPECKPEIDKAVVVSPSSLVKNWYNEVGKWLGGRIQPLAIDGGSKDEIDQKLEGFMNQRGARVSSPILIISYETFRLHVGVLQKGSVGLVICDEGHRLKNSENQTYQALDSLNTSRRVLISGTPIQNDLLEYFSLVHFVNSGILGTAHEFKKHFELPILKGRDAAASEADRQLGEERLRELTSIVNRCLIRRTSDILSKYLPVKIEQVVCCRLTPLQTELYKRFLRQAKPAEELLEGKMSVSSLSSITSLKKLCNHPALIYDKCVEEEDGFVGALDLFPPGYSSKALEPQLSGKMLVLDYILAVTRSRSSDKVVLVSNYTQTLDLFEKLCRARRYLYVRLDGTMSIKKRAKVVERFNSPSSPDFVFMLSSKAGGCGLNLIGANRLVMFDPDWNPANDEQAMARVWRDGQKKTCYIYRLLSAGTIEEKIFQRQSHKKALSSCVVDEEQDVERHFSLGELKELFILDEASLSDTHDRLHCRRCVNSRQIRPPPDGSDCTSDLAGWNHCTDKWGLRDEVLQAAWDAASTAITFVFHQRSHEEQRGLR

[3] = biological target: T3, DNA repair protein RAD52 homolog (Homo sapiens, UniProt P43351); type: functional, biochemical
T3 sequence (P43351 whole entry): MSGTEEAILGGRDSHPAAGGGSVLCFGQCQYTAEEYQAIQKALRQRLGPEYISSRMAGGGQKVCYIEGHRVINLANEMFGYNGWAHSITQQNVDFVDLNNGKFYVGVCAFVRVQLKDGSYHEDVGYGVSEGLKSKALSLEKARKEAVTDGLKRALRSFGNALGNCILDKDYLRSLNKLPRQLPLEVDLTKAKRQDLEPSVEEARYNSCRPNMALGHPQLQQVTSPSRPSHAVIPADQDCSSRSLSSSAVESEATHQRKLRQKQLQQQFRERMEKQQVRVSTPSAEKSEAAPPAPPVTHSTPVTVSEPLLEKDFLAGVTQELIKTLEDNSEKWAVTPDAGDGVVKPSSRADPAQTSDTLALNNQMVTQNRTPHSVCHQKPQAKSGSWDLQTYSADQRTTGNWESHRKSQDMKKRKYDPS

cells [4] = experiment: cells
Major prion protein = Major prion protein (Homo sapiens, UniProt P04156); type: functional, cell-based
[5] = biological target: T4, Methionyl-tRNA synthetase, putative (Trypanosoma brucei brucei, UniProt Q38C91); type: functional, Trypanosoma brucei brucei strain 927/4 GUTat10.1
T4 sequence (Q38C91 whole entry): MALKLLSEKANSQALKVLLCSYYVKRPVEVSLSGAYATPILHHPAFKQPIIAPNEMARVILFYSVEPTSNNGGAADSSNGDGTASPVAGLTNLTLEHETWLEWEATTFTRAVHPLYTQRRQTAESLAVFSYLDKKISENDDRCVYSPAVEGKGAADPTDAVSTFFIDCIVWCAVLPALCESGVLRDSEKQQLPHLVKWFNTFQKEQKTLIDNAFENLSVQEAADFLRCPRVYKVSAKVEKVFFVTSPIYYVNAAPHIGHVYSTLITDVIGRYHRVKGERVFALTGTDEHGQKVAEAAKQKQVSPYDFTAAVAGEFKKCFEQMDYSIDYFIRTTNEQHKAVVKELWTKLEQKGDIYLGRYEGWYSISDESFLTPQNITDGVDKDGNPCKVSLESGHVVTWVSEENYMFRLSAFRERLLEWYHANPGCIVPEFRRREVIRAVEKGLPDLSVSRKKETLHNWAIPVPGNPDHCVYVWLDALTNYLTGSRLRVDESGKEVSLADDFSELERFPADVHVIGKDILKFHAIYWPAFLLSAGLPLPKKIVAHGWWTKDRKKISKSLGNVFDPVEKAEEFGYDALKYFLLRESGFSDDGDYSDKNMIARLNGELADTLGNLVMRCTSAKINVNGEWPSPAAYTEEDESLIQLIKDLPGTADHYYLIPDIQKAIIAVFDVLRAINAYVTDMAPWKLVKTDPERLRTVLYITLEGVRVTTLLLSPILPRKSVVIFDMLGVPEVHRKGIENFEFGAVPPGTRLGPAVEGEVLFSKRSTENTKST

[6] = biological target: T4, Methionyl-tRNA synthetase, putative; type: functional, Trypanosoma brucei brucei strain 927/4 GUTat10.1; remark: listed apart in the source
[7] = Counterscreen for inhibitors of Trypanosoma brucei methionyl tRNA synthetase (MetRS): Luminescence-based cell-based high throughput dose response assay to identify compounds that are cytotoxic to Jurkat human T lymphocyte cells.; type: functional
[8] = biological target: T5, Hepatocyte nuclear factor 4-alpha (Homo sapiens, UniProt P41235); type: functional, cell-based;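 note: biochemical luminescence-based dose-response counterscreen measuring inhibition of HNF4 dimerization, run alongside a screen for blockers of ABHD5–perilipin-5 interaction; split luciferase complementation of HNF4 fusion proteins in cell lysate measuring dimerization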
T5 sequence (P41235 whole entry): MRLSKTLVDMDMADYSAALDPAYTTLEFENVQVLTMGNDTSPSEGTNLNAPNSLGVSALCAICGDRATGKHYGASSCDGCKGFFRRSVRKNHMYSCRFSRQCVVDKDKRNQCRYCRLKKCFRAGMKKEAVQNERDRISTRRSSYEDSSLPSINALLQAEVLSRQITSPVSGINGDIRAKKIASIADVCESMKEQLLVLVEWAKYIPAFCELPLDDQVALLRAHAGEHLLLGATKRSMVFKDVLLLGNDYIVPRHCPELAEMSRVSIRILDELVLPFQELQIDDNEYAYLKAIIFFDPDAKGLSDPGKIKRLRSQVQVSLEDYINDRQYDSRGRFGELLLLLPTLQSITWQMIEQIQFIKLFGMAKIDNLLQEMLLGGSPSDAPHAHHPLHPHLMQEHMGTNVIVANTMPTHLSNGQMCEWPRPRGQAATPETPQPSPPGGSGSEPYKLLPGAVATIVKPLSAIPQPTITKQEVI

cells [9] = type: functional, cell-based
[10] = AlphaScreen signal interference compounds, dose response, artefact control for ARNT-TACC3 interaction inhibitor project, biochemical, luminescence, cherry-pick (AID 651705); type: functional;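 note: AlphaScreen bead proximity signal that flags compounds interfering with the detection technology; potency reflects signal decrease which marks the compound as an assay artifact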
INS1 = experiment: beta cell apoptosis inhibitors, cytokine rescue, dose response, luminescence, retest (AID 449756); type: functional, cell-based; details: Rattus norvegicus;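 note: cell death triggered by IL-1 beta plus TNF-alpha plus IFN-gamma mixture; protective hits raise ATP signal compared with cytokine alone wells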
H9c2 = experiment: cells; type: functional, cell-based; details: Rattus norvegicus, H9c2, Myocardium;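 note: confirmatory concentration-response retest of ultra-high-throughput screening hits for modulation of myocardial damage; cell death induced by hydrogen peroxide oxidative stress; compound pretreatment for 60 min then peroxide exposure for 2 h; potency is for protecting the cells against peroxide damage rather than for killing them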
cells [11] = type: functional, cell-based; remark: listed apart in the source
[12] = biological target: T6, Long-chain-fatty-acid--AMP ligase FadD28 (Mycobacterium tuberculosis, UniProt P9WQ59); experiment: Fluorescence polarization aasay to screen for inhibitors that compete for the binding of FadD28 to a bisubstrate Measured in Biochemical System Using Plate Reader - 2147-01_Inhibitor_Dose_CherryPick_Activity.; type: functional, Mycobacterium tuberculosis H37Rv
T6 sequence (P9WQ59 whole entry): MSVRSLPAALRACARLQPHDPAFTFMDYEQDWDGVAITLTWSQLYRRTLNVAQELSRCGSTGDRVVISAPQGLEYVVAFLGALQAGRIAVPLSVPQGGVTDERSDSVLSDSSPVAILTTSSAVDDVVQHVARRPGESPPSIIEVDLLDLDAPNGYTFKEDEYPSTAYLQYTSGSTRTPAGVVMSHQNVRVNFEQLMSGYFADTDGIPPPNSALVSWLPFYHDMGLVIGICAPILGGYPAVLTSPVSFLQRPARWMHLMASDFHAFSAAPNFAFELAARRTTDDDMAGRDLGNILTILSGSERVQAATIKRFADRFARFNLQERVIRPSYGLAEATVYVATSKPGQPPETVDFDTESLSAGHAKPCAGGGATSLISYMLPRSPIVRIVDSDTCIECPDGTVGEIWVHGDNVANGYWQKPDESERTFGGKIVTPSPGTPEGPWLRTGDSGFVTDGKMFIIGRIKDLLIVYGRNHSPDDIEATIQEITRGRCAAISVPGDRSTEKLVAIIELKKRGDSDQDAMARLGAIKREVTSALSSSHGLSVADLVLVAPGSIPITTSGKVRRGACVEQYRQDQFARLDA

[13] = cytotoxicity in OVCAR8 ovarian cancer cells, dose response, PAX8 project, cell-based, plate reader, dry powder samples (AID 743197); type: functional; details: OVCAR-8
Paired box protein Pax-8 = Paired box protein Pax-8 (Homo sapiens, UniProt Q06710); experiment: inhibitors of PAX8-driven TPO luciferase reporter, dose response, RMG-I cells, cherry-pick (AID 687027); type: functional, cell-based;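 note: luciferase reporter driven by Pax8 target thyroperoxidase promoter measured by SteadyGlo luminescence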
[14] = Luminescence Cell-Based Dose Retest to Confirm Inhibitors of Cancer Stem Cells. [Related pubchem assays (depositor defined):AID2717, AID2721]; type: functional; details: Homo sapiens
[15] = biological target: T7, Rac GTPase-activating protein 1 (Homo sapiens, UniProt Q9H0H5); experiment: MgcRacGAP GTPase-activating activity inhibitors, confirmation, biochemical, ADP Hunter fluorescence, primary and confirmatory (AID 624330); type: functional
T7 sequence (Q9H0H5 whole entry): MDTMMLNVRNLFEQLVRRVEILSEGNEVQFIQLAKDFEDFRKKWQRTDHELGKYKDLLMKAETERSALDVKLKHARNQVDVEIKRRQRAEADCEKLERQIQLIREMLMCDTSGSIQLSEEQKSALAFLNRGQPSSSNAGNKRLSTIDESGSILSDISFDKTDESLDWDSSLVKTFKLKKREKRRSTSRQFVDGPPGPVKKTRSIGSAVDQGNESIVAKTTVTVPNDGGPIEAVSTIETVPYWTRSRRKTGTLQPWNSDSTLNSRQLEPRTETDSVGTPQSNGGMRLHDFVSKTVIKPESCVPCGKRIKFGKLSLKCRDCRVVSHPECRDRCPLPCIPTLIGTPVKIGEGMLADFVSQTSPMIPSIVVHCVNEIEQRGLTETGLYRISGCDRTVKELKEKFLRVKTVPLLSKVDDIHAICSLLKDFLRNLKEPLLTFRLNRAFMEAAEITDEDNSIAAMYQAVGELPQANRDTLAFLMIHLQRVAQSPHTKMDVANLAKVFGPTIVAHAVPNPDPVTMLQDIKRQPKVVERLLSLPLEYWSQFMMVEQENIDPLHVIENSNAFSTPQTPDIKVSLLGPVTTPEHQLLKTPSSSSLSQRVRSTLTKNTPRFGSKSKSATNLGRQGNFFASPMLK

In the case of `CCN1CCN(c2ccc(Nc3ccnc4ccccc34)cc2)CC1`, the AC50 [1] is reported as 12.3 µM (active), the AC50 [2] is reported as 12.2 µM (active) and the AC50 [3] is reported as 3.19 µM (active).

For `CCOc1ccc(NC(=O)CCSc2ccc3ccccc3n2)cc1`, the IC50 (cells [4]) was > 138 µM (inactive) and the IC50 (Major prion protein) was 9.01 µM (active).

For `Cc1cccc(NS(=O)(=O)c2c(C)[nH]c(C)c2C(=O)N2CCCC2)c1`, the IC50 [5] was 35.4 µM (inactive), the IC50 [6] was 11.8 µM (inactive) and the IC50 [7] was 83.3 µM (inactive).

For `NC(=O)C(C(=O)/C=C/c1ccc(Cl)cc1)=C1SCCS1`, the IC50 [8] was 12.1 µM (inactive).

With `CCOC(=O)c1c(CN2CCCCC2)n(C)c2cc(Br)c(OC)cc12` the AC50 [2] was 36.3 µM (active).

With `CCc1ccc(NC(=O)CSc2ccc(-c3ccccn3)nn2)cc1` the EC50 (cells [9]) was > 350 µM (not active), the AC50 [10] was 87 µM (active) and the AC50 (INS1) was 9.24 µM (active). The IC50 (H9c2) was > 79 µM (inactive) and the EC50 (cells [11]) was 160 µM (active).

For `COC(=O)CSc1ccnc2cc(Cl)ccc12`, the IC50 (cells [4]) was > 138 µM (inactive) and the IC50 (Major prion protein) was 5.16 µM (active).

In the case of `COC(=O)COc1ccc(Cl)cc1C1Nc2ccccc2C(=O)N1c1ccc(OC)cc1` (stereo unspecified), the AC50 [12] is reported as > 100 µM (inactive).

With `NC(=O)CSc1nc(-c2ccccc2)nc2ccccc12` the IC50 (cells [4]) was > 138 µM (inactive) and the IC50 (Major prion protein) was 6.23 µM (active).

For `Cc1cccn2c(=O)c3cc(C(=O)NCc4ccccc4)c(=N)n(CCCN4CCOCC4)c3nc12`, the AC50 [2] was 15.3 µM (active).

For `OC(c1cc(F)cc(Cl)c1)c1nc(-c2ccc3ccccc3c2)c[nH]1` (stereo unspecified), the IC50 [5] was 1.46 µM (active), the IC50 [6] was 2.45 µM (active) and the IC50 [7] was 83.3 µM (inactive).

In the case of `CCCCCNC(=O)C(c1cc2ccccc2o1)n1c(=O)c(-c2ccco2)nc2ccccc21` (stereo unspecified), the IC50 [8] is reported as 2 µM (active).

For `C[C@H](CO)N1C[C@H](C)[C@H](CN(C)Cc2ccc(C(F)(F)F)cc2)Oc2ccc(NS(=O)(=O)c3ccc(F)cc3)cc2CC1=O`, the AC50 [13] was 52.5 µM (active) and the AC50 (Paired box protein Pax-8) was 11.4 µM (active).

For `Cc1cccc(NC(=O)CCC(=O)N/N=C/c2ccc(O)cc2O)c1`, the AC50 [14] was 9.74 µM (active), the AC50 [10] was 118 µM (active) and the IC50 [15] was 62.8 µM (active).

For `Cc1cccc(OCC(=O)N/N=C\c2cn(C)c3ccccc23)c1`, the AC50 [12] was 14.6 µM (active).
